Test results from US9493441B2, “Acyclic cyanoethylpyrazoles as janus kinase inhibitors” (Merck Sharp & Dohme Corp., priority 2011, dated 2016).
Like-named read-outs stand apart in the source and are kept apart here.

Experiments:
JAK1 = JAK1 (Homo sapiens (Human), UniProt P23458); assay: Jak biochemical HTRF assay, JAK1
JAK2 = JAK2 (Homo sapiens (Human), UniProt O60674); assay: Jak biochemical HTRF assay, JAK2
[1] = JAK1 IC50 (nM), recombinant GST-tagged catalytic domain, [ATP] 31.8 μM
[2] = JAK2 IC50 (nM), recombinant GST-tagged catalytic domain, [ATP] […]
[3] = read-out: JAK1 IC50, recombinant GST-tagged catalytic domain, [ATP] 31.8 μM
[4] = read-out: JAK2 IC50, recombinant GST-tagged catalytic domain, [ATP] […]

JAK2, sequence (O60674 849-1124): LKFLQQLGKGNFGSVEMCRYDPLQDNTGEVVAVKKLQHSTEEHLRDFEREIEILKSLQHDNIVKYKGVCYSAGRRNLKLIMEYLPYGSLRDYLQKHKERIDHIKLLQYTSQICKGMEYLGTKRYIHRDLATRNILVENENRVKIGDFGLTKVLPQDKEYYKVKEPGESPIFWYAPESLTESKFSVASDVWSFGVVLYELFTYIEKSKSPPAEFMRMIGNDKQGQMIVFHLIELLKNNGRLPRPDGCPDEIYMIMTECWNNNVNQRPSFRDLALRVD
JAK1, sequence (P23458 875-1153): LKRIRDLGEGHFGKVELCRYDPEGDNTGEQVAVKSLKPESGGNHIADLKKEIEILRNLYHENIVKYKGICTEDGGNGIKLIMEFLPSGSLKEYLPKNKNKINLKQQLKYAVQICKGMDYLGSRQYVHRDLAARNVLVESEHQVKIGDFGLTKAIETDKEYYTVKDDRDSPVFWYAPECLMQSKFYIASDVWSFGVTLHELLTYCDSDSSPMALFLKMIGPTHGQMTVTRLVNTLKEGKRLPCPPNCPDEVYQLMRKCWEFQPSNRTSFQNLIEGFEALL

IC50 (JAK1; [1]) [nM]	IC50 (JAK2; [2]) [nM]	IC50 (JAK1; [3]) [nM]	IC50 (JAK2; [4]) [nM]	Compound
12	41	–	–	N#CCC(C1CC1)n1cc(C(N)=O)c(Nc2cccc(CO)c2)n1 (stereo not drawn) [Example 4-10, 1-(2-cyano-1-cyclopropylethyl)-3-{[3-(hydroxymethyl)phenyl]amino}-1H-pyrazole-4-carboxamide]
65	277	–	–	Cc1nc(-c2ccc(Nc3nn(C(CC#N)C4CC4)cc3C(N)=O)cc2)no1 (stereo not drawn) [Example 4-26, 1-(2-cyano-1-cyclopropylethyl)-3-{[4-(5-methyl-1,2,4-oxadiazol-3-yl)phenyl]amino}-1H-pyrazole-4-carboxamide]
13	43	–	–	N#CCC(C1CC1)n1cc(C(N)=O)c(Nc2ccc(N3CCOCC3)cc2)n1 (stereo not drawn) [Example 4-17, 1-(2-cyano-1-cyclopropylethyl)-3-[(4-morpholin-4-ylphenyl)amino]-1H-pyrazole-4-carboxamide]
19	45	–	–	CC(CC#N)n1cc(C(N)=O)c(Nc2ccc(C(=O)N3CCS(=O)(=O)CC3)cc2)n1 (stereo not drawn) [Example 1-16, 1-(2-cyano-1-methylethyl)-3-({4-[(1,1-dioxidothiomorpholin-4-yl)carbonyl]phenyl}amino)-1H-pyrazole-4-carboxamide]
44	1050	–	–	CCOC(=O)N1CCC([C@H](CC#N)n2cc(C(N)=O)c(Nc3ccc(F)cc3)n2)CC1 (single isomer, unassigned) [Example 12-4, ethyl 4-[(1S or 1R)-1-{4-carbamoyl-3-[(4-fluorophenyl)amino]-1H-pyrazol-1-yl}-2-cyanoethyl]piperidine-1-carboxylate]
1	23	–	–	CN1Cc2cc(Nc3nn(C(CC#N)C4CC4)cc3C(N)=O)ccc2C1=O (stereo not drawn) [Example 4-33, 1-(2-cyano-1-cyclopropylethyl)-3-[(2-methyl-1-oxo-2,3-dihydro-1H-isoindol-5-yl)amino]-1H-pyrazole-4-carboxamide]
123	413	–	–	C[C@@H](C#N)[C@H](C)n1cc(C(N)=O)c(Nc2ccccc2)n1 (mixture of isomers) [Example 1-23, 1-((2S, 3R and 2R, 3S)-3-cyclobutan-2-yl)-3-(phenylamino)-1H-pyrazole-4-carboxamide]
5	33	–	–	N#CCC(C1CC1)n1cc(C(N)=O)c(Nc2ccc(C#N)cc2)n1 (stereo not drawn) [Example 4-14, 1-(2-cyano-1-cyclopropylethyl)-3-[(4-cyanophenyl)amino]-1H-pyrazole-4-carboxamide]
12	110	–	–	N#CCC(C1CC1)n1cc(C(N)=O)c(Nc2ccc(C(F)(F)F)cc2)n1 (stereo not drawn) [Example 4-3, 1-(2-cyano-1-cyclopropylethyl)-3-{[4-(trifluoromethyl)phenyl]amino}-1H-pyrazole-4-carboxamide]
61	417	–	–	CC(CC#N)n1cc(C(N)=O)c(Nc2ccccc2)n1 (stereo not drawn) [Example 1-6, 1-(2-cyano-1-methylethyl)-3-(phenylamino)-1H-pyrazole-4-carboxamide]
–	–	1	8	1-[(1R or 1S)-2-cyano-1-cyclopropylethyl]-3-{[4-(methylsulfonyl)phenyl]amino}-1H-pyrazole-4-carboxamide [Example 14-1]
–	–	34	257	Cc1noc(-c2ccc(Nc3nn([C@@H](CC#N)C4CC4)cc3C(N)=O)cc2)n1 (single isomer, unassigned) [Example 18-2, 1-[(1R or 1S)-2-cyano-1-cyclopropylethyl]-3-{[4-(3-methyl-1,2,4-oxadiazol-5-yl)phenyl]amino}-1H-pyrazole-4-carboxamide]
245	1500	–	–	CC(C)COC(=O)N1CCC([C@H](CC#N)n2cc(C(N)=O)c(Nc3ccc(F)cc3)n2)CC1 (single isomer, unassigned) [Example 12-3, 2-methylpropyl 4-[(1S or 1R)-1-{4-carbamoyl-3-[(4-fluorophenyl)amino]-1H-pyrazol-1-yl}-2-cyanoethyl]piperidine-1-carboxylate]
2	20	–	–	CC(C)(C)OC(=O)CN1Cc2cc(Nc3nn(C(CC#N)C4CC4)cc3C(N)=O)ccc2C1=O (stereo not drawn) [Example 4-34, tert-butyl (5-{[4-carbamoyl-1-(2-cyano-1-cyclopropylethyl)-1H-pyrazol-3-yl]amino}-1-oxo-1,3-dihydro-2H-isoindol-2-yl)acetate]
1	13	–	–	C[S+]([O-])c1ccc(Nc2nn(C(CC#N)C3CC3)cc2C(N)=O)cc1 (stereo not drawn) [Example 4-32, 1-(2-cyano-1-cyclopropylethyl)-3-{[4-(methylsulfinyl)phenyl]amino}-1H-pyrazole-4-carboxamide]
122	1500	–	–	CS(=O)(=O)CCOC(=O)N1CCC(C(CC#N)n2cc(C(N)=O)c(Nc3ccc(F)cc3)n2)CC1 (stereo not drawn) [Example 11-3, 2-(methylsulfonyl)ethyl 4-(1-{4-carbamoyl-3-[(4-fluorophenyl)amino]-1H-pyrazol-1-yl}-2-cyanoethyl)piperidine-1-carboxylate]
16	190	–	–	N#CC[C@@H](C1CC1)n1cc(C(N)=O)c(Nc2ccnc(F)c2)n1 (single isomer, unassigned) [Example 17-5, 1-[(1R or 1S)-2-cyano-1-cyclopropylethyl]-3-[(2-fluoropyridin-4-yl)amino]-1H-pyrazole-4-carboxamide]
33	1170	–	–	N#CC[C@@H](C1CCN(C(=O)OC2CCC2)CC1)n1cc(C(N)=O)c(Nc2ccc(F)cc2)n1 [Example 11-5, cyclobutyl 4-[(1S)-1-{4-carbamoyl-3-[(4-fluorophenyl)amino]-1H-pyrazol-1-yl}-2-cyanoethyl]piperidine-1-carboxylate]
501	1480	–	–	N#CCC(C1CCCOC1)n1cc(C(N)=O)c(Nc2ccccc2)n1 (stereo not drawn) [Example 1-15, 1-[2-cyano-1-(tetrahydro-2H-pyran-3-yl)ethyl]-3-(phenylamino)-1H-pyrazole-4-carboxamide]
8	45	–	–	CC(=O)Nc1ccc(Nc2nn(C(CC#N)C3CC3)cc2C(N)=O)cc1 (stereo not drawn) [Example 4-21, 3-{[4-(acetylamino)phenyl]amino}-1-(2-cyano-1-cyclopropylethyl)-1H-pyrazole-4-carboxamide]
195	413	–	–	CC(CC#N)(C1CC1)n1cc(C(N)=O)c(Nc2ccccc2)n1 (stereo not drawn) [Example 1-18, 1-(2-cyano-1-cyclopropyl-1-methylethyl)-3-(phenylamino)-1H-pyrazole-4-carboxamide]
12	103	–	–	CC(C)(CC#N)n1cc(C(N)=O)c(Nc2ccccc2)n1 [Example 1-21, 1-(2-cyano-1,1-dimethylethyl)-3-(phenylamino)-1H-pyrazole-4-carboxamide]
32	198	–	–	C[C@H](C#N)[C@H](C)n1cc(C(N)=O)c(Nc2ccccc2)n1 (mixture of isomers) [Example 1-22, 1-((2S, 3S and 2R, 2R)-3-cyclobutan-2-yl)-3-(phenylamino)-1H-pyrazole-4-carboxamide]
9	31	–	–	N#CCC(C1CCCC1)n1cc(C(N)=O)c(Nc2ccc(C(=O)N3CCS(=O)(=O)CC3)cc2)n1 (stereo not drawn) [Example 1-5, 1-(2-cyano-1-cyclopentylethyl)-3-({4-[(1,1-dioxidothiomorpholin-4-yl)carbonyl]phenyl}amino)-1H-pyrazole-4-carboxamide]
